Results published in ChEMBL document CHEMBL1122319, “Substituted (2-phenoxyphenyl)acetic acids with antiinflammatory activity. 1” (J Med Chem, 1983).

How the values were obtained:
Rattus norvegicus [1] = assay: Reduction in paw swelling at 100 mg/kg po dose in rat using adjuvant arthritis test.; type: functional
Rattus norvegicus [2] = organism: Rattus norvegicus; assay: Potency relative to [2-(2,4-Dichloro-phenoxy)-phenyl]-acetic acid in rat adjuvant arthritis test; type: functional

Structure (SMILES)	Reduction (Rattus norvegicus [1])	Relative potency (Rattus norvegicus [2])
COc1cc(Cl)ccc1Oc1ccc(C)cc1CC(=O)O	23	0.7
Cc1ccc(Oc2ccc(CC(C)C)cc2Cl)c(CC(=O)O)c1	19	0.2
Cc1ccc(Oc2ccc(Cl)c(Cl)c2)c(CC(=O)O)c1	9	
CCCCCc1ccc(Oc2ccc(C)cc2CC(=O)O)c(Cl)c1	23	0.3
Cc1ccc(Oc2ccc(C)cc2CC(=O)O)c(Cl)c1	35	0.4
Cc1cc(Oc2ccc(Cl)cc2CC(=O)O)cc(C)c1Cl	23	
CCCCCCCCc1ccc(Oc2ccc(C)cc2CC(=O)O)c(Cl)c1	13%	
Cc1ccc(Oc2ccc(Cl)cc2)c(CC(=O)O)c1	9	0.7
O=C(O)Cc1cc(Cl)ccc1Oc1ccc(O)cc1Cl	36	
COc1ccc(Oc2ccc(Cl)cc2CC(=O)O)c(Cl)c1	18	
OCCc1ccccc1Oc1ccc(Cl)cc1Cl	32	0.7
CCCCCCc1ccc(Oc2ccc(C)cc2CC(=O)O)c(Cl)c1	5	
O=C(O)Cc1ccccc1Oc1ccc([N+](=O)[O-])cc1[N+](=O)[O-]	0%	
Cc1ccc(Oc2ccccc2F)c(CC(=O)O)c1	24	
O=C(O)Cc1cc(Cl)ccc1Oc1ccccc1F	21	
O=C(O)Cc1ccccc1Oc1ccc(Br)cc1Br	29	0.8
O=C(O)Cc1ccccc1Oc1ccc(Cl)c(Cl)c1	20	
CCCCCCCCCCc1ccc(Oc2ccc(C)cc2CC(=O)O)c(Cl)c1	9%	
NC(=O)Cc1ccccc1Oc1ccc(Cl)cc1Cl	33	1.3
O=C(O)C(=O)c1ccccc1Oc1ccc(Cl)cc1Cl	23	0.3
Cc1ccc(Oc2cc(O)c(C)cc2CC(=O)O)c(Cl)c1	12	
Cc1ccc(Oc2ccccc2C(F)(F)F)c(CC(=O)O)c1	0	
CC(C(=O)O)c1ccccc1Oc1ccc(Cl)cc1Cl (stereo not given)	0	
Cc1cc(Oc2ccc(Cl)cc2CC(=O)O)c(Cl)cc1Cl	40	0.6

Structure (SMILES)	Reduction (Rattus norvegicus [1])	Relative potency (Rattus norvegicus [2])
Cc1ccc(Oc2c(Cl)cccc2Cl)c(CC(=O)O)c1	16	
Cc1ccc(Oc2ccc(Cl)cc2Cl)c(CC(=O)O)c1	29	0.8
O=C(O)Cc1ccccc1Oc1ccc(Cl)cc1	0	
Nc1ccc(Oc2ccccc2CC(=O)O)c(N)c1	0%	
Cc1ccc(Oc2cc(C)c(Cl)cc2C)c(CC(=O)O)c1	10	
Cc1ccc(Oc2ccc(Cl)cc2O)c(CC(=O)O)c1	26	
Cc1ccc(Oc2cc(Cl)ccc2C)c(CC(=O)O)c1	15	0.2
Cc1ccc(Oc2ccc(Cl)cc2C)c(CC(=O)O)c1	17	
COc1ccccc1Oc1ccccc1CC(=O)O	38	0.7
CCCCc1ccc(Cl)c(Oc2ccc(C)cc2CC(=O)O)c1	5	
O=C(O)Cc1ccccc1Oc1c(Cl)cc(Cl)cc1Cl	23	
O=C(O)Cc1ccccc1Oc1cccc(Cl)c1Cl	51	
Cc1ccc(Oc2ccc(Cl)cc2CC(=O)O)c(C)c1	22	
Cc1ccc(Oc2cc(C)c(Cl)c(C)c2Cl)c(CC(=O)O)c1	20	
Cc1ccc(Oc2cc(Cl)ccc2Cl)c(CC(=O)O)c1	32	0.4
Nc1ccc(Oc2ccc(Cl)cc2Cl)c(CC(=O)O)c1	0	
O=C(O)Cc1cc(Cl)ccc1Oc1cccc(Cl)c1	0	
O=C(O)Cc1ccccc1Oc1ccccc1C(F)(F)F	0	
O=C(O)Cc1ccccc1Oc1cc(Cl)c(Cl)cc1Cl	17	
Cc1ccc(Oc2c(C)cc(Cl)cc2C)c(CC(=O)O)c1	14	0.3
Cc1ccc(Oc2ccccc2CC(=O)O)c(Cl)c1	21	
O=C(O)c1ccccc1Oc1ccc(Cl)cc1Cl	18	
Cc1ccc(Oc2ccc(-c3ccccc3)cc2Cl)c(CC(=O)O)c1	23	0.2
CCCc1ccc(Oc2ccc(C)cc2CC(=O)O)c(Cl)c1	27	0.6

Structure (SMILES)	Reduction (Rattus norvegicus [1])	Relative potency (Rattus norvegicus [2])
Cc1ccc(Oc2ccc(C(C)C)cc2Cl)c(CC(=O)O)c1	30	1.6
Cc1ccc(Oc2ccccc2Cl)c(CC(=O)O)c1	12	
Cc1ccc(Oc2ccc(C)cc2CC(=O)O)c(C)c1	20	
Cc1ccc(Oc2cc(C)c(Cl)cc2Cl)c(CC(=O)O)c1	45	0.4
Cc1cc(Oc2ccccc2CC(=O)O)c(Cl)cc1Cl	19	
CCc1ccc(Oc2ccc(C)cc2CC(=O)O)c(CC)c1	8	
CCCCCCCCCCCc1ccc(Oc2ccc(C)cc2CC(=O)O)c(Cl)c1	14%	
O=C(O)Cc1ccccc1Oc1ccccc1	0	
Cc1ccc(Oc2cccc(Cl)c2C)c(CC(=O)O)c1	20	0.3
Cc1ccc(Oc2cccc(Cl)c2Cl)c(CC(=O)O)c1	13	
CCc1ccc(Oc2ccccc2CC(=O)O)c(Cl)c1	32	0.7
Cc1ccc(Oc2ccc(Cl)c(C)c2)c(CC(=O)O)c1	9	
Cc1ccc(Oc2cc(C)c(Cl)cc2C(C)C)c(CC(=O)O)c1	3	
O=C(O)Cc1cc(Cl)ccc1Oc1ccccc1Cl	0	
Cc1ccc(Oc2cc(C)cc(C)c2C)c(CC(=O)O)c1	11	0.1
Cc1cc(Oc2ccc(Cl)cc2CC(=O)O)c(Cl)c(C)c1Cl	41	1
O=C(O)Cc1cc([N+](=O)[O-])ccc1Oc1ccc(Cl)cc1Cl	9%	
O=C(O)Cc1cc(Cl)ccc1Oc1ccccc1	0	
COc1ccc(Oc2ccc(Cl)cc2Cl)c(CC(=O)O)c1	3	
O=C(O)Cc1cc(Cl)ccc1Oc1ccc(Cl)cc1Cl	37	1
Cc1cc(Cl)ccc1Oc1ccc(Cl)cc1CC(=O)O	7	
Cc1ccc(Oc2ccc(Cl)cc2CC(=O)O)c(Cl)c1	10	
Cc1ccc(Oc2c(C)cc(Cl)cc2Cl)c(CC(=O)O)c1	23	0.3
O=C(O)Cc1ccc(Oc2ccc(Cl)cc2Cl)cc1	2	

Structure (SMILES)	Reduction (Rattus norvegicus [1])	Relative potency (Rattus norvegicus [2])
Cc1ccc(Oc2cc(C)c(Cl)c(C)c2)c(CC(=O)O)c1	5	0.7
Cc1cc(Cl)c(Oc2ccc(Cl)cc2CC(=O)O)cc1C	22	
O=C(O)Cc1cc([N+](=O)[O-])c([N+](=O)[O-])cc1Oc1ccc(Cl)cc1Cl	8%	
CCCCCCCCCc1ccc(Oc2ccc(C)cc2CC(=O)O)c(Cl)c1	8%	
CCCCOc1ccc(CC(=O)O)c(Oc2ccc(C)cc2Cl)c1	0	
Cc1ccc(Oc2ccccc2CC(=O)O)c(C)c1	20	
Cc1cc(Oc2ccccc2CC(=O)O)c(Cl)c(C)c1Cl	34	1.2
Cc1cc(Cl)ccc1Oc1ccccc1CC(=O)O	0	
Cc1ccc(Oc2ccc(O)cc2CC(=O)O)c(Cl)c1	10	
Cc1ccc(Oc2cc(C(F)(F)F)ccc2Cl)c(CC(=O)O)c1	29	3
O=C(O)Cc1ccccc1Oc1ccc([N+](=O)[O-])cc1Cl	19%	
Cc1ccc(Oc2ccc(N)cc2CC(=O)O)c(Cl)c1	3	
O=C(O)Cc1cc(Cl)ccc1Oc1ccc(Cl)cc1	21	
Cc1ccc(Oc2c(C)cccc2Cl)c(CC(=O)O)c1	26	0.5
CCOC(=O)Cc1ccccc1Oc1ccc(Cl)cc1Cl	34	0.5
O=C(O)Cc1ccccc1Oc1c(Cl)cccc1Cl	20	
CN(C)c1ccc(Oc2ccc(Cl)cc2Cl)c(CC(=O)O)c1	5	
O=C(O)Cc1ccccc1Oc1cc(Cl)ccc1Cl	18	
O=C(O)Cc1cc(Cl)ccc1Oc1cc(Cl)ccc1Cl	40	1
Cc1ccc(Oc2ccc(C(F)(F)F)cc2CC(=O)O)c(Cl)c1	0	
O=C(O)CCc1ccccc1Oc1ccc(Cl)cc1Cl	0	
O=C(O)Cc1ccccc1Oc1ccc(Cl)cc1[N+](=O)[O-]	4%	
